How the values were obtained:
[1] = PEG-carfilzomib mouse pK (FIG. 2); design: species or system mice (Balb/c); settings: in vivo, iv
Procedure: Mean plasma concentration (μM) following intravenous administration of PEG-carfilzomib conjugate to female Balb/c mice (n=3). Dosage indicated is mg/kg of PEG-carfilzomib conjugate. […] Blood samples were collected at the indicated time points and plasma carfilzomib concentrations were measured in duplicate by LC/MS-MS. […] This standard carfilzomib represents the currently approved formulation for carfilzomib for treatment of multiple myeloma.

[2] = test system: HT-29 Human Colorectal Adenocarcinoma Xenograph Model; assay: Efficacy study in HT-29 xenograph model (FIG. 5, FIG. 6, Table 6); assay type: in vivo, SCID Beige Mice; settings: for % Change compared to Vehicle: Day 40; for Day 0 Tumor Vol: baseline; for # of animals at day 40: n = 10 at start
From the text: (§1) Female Beige Severe Combined Immune Deficiency (SCID) mice (60 plus spares) were purchased from Harlan Laboratories (Livermore, Calif.) as 6- to 7-week-old mice. Following arrival, animals were weighed using an electronic balance (Ohaus SCOUT® PRO, Parsippany, N.J.), given a clinical examination to ensure that the animals were in good condition, and housed 5 per cage (prior to dosing). The animals were maintained in a HEPA-filtered environment in a Micro-VENT full-ventilation rodent housing system (Allentown Caging Equipment Co., Allentown, N.J.) providing at least 10 room air changes per hour Animal room controls were set to maintain temperature and relative humidity at 20° C.±1° C. and 50%±20%, respectively. Housing rooms were on a 12:12 light/dark cycle. Cages were autoclaved, and animals were bedded on SaniChip irradiated bedding 7990.BG (Harlan Teklad; Hayward, Calif.). Water was autoclaved and supplied ad libitum to each cage via water bottles. Irradiated 2018 Teklad Global 16% Protein Rodent Diet ((Harlan Teklad) supplied ad libitum to each cage.
Example 13 was prepared as generally described above. The carfilzomib comparator compound was prepared as CFZ-captisol (at 1 mg/mL). A powder sample of example 13 was diluted to 30 mg/ml (Group 3) or 50 mg/ml (Group 3 beginning fourth dose) or 40 mg/ml (Group 4) in 10% ETOH/saline. Vehicle and CFZ-captisol were stored at 4° C. throughout the study. During the study, example 13 was inspected regularly for potential changes in the quality of the suspension; none were observed
NCI-HT29 (HT-29; ATCC® HTB-38™), a human colorectal adenocarcinoma cancer cell (CA) line, was purchased from ATCC (Manassas, Va.). Following receipt at the MGI, cells were grown in-house for 7 passages in RPMI 1640 and 10% fetal bovine serum, then used to generate frozen stocks. The cells were recovered from the frozen stocks and cultured as above. Following growth, the cells were spun down and resuspended at a concentration of 5E07 cells/mL in serum-free medium without additives, then combined 1:1 with Matrigel™ (Trevigen, Gaithersburg, Md.). At the time of implant, cells corresponded to MGI Passage 7 (MGP7).
At approximately 3 weeks prior to the projected staging day, mice were implanted by subcutaneous (SC) injection into the lower left abdominal flank with 200 μL (5.0E06 cells) per mouse of the freshly prepared HT29:Matrigel mixture. All procedures were carried out in HEPA-filtered laminar-flow hoods.
When the tumors reached a mean volume of approximately 200 mm^3 per mouse, forty animals with established tumors and moderate body weights were randomized into 4 treatment groups (n=10 mice per group). Starting on Day 0, animals were administered by once-weekly (qw) injection with vehicle (Group 1) or twice-weekly D1D2 injection (i.e., two adjacent days each week) with CFZ-captisol at 5 mpk (Group 2) or OP-59381 at 150 mg/kg (Groups 3). Starting with the fourth dose (i.e., after three week), dosing of Group 3 animals was increased to 250 mg/kg. Group 4 was dosed once-weekly (qw) injection with or OP-59381 (Example 13) at 200 mg/kg. All of these doses were administered as intravenous (IV) injections at dose volumes of 5 mL/kg. After the IV dosing for the seventh week (i.e., after Day 42 for Groups 1-4), the tumor treatment efficacy appeared to slow or cease altogether.

[3] = test system: HT-29 Colorectal Adenocarcinoma Xenograph Model; assay: Second efficacy study in HT-29 xenograph model (FIG. 7); assay type: in vivo, SCID Beige Mice
From the text: as §1
Example 13 was formulated as described herein to the desired concentration. Carfilzomib was provided as CFZ-captisol (at 1 mg/mL). a powder sample of Example 13 was diluted to 30 mg/ml (Group 3) or 50 mg/ml (Group 4) in 10% ETOH/saline. Vehicle and CFZ-captisol were stored at 4° C. throughout the study. […]

[4] = mouse, in vivo, iv, 5 mg/kg
Procedure: The PEG carfilzomib compounds were administered to mice (Balb/c, male, n=9 per dose group) as an intravenous (i.v.) bolus at 5 mg/kg (equivalent to carfilzomib, dose volume 1 mL/kg). Blood samples from each mouse were collected at the indicated time points (0.5, 1, 2, 4, 6, 12, 16 and 24 hours post-dose) and 25 μL of the plasma samples were extracted by protein precipitation with 125 μL of acetonitrile containing D10-CFZ as an internal standard and then centrifuged. Carfilzomib concentrations were measured in the supernatant by LC-MS/MS using multiple reaction monitoring in the positive electrospray ionization mode. The lower limit of quantitation of the assay was 0.500 ng/mL.

[5] = test system: cellular proteasome chymotrypsin-like (CT-L) in MOLT-4 human acute lymphoblastic leukemia T lymphoblasts; assay: Proteosome inhibition in cells (AMC-LLVY fluorescent assay, FIGS. 9-14); assay type: cell-based; settings: MOLT-4 cells, 1 hour incubation; read-out: cellular proteasome chymotrypsin-like (CT-L) IC50 inhibitory potency
Procedure: MOLT-4 human acute lymphoblastic leukemia T lymphoblasts were grown for at least 6 passages in growth media (RPMI-1640 basal media supplemented with 10% FBS and 1×L-glutamine). […] Serial dilutions were performed in DMSO to produce concentrations covering 7 logs, and then each serial dilution was further diluted 40× in growth media. Dilutions were then added in equal volume to wells containing cells, further diluting compound concentrations by two-fold. Cells were incubated at 37° C. (5% CO2) for 1 hour, then spun at 1500 rpm for 5 mins at RT. Media was removed and the cells were washed with PBS 3 times. After the last wash, supernatant was removed and the cell pellets were frozen on dry ice. Cell pellets were thawed and then lysed by resuspending in 50 uL lysis buffer on ice (20 mM Tris-HCl, 5 mM EDTA, pH 8). The preparation was centrifuged at 1500 rpm for 5 mins and then utilized directly for AMC-LLVY fluorescent assay.

[6] = test system: Proteasome chymotrypsin-like (CT-L) activity; assay: Proteasome CT-L activity in blood and tissues after i.v. dosing (FIG. 3); assay type: in vivo, mice (Balb/c); settings: i.v. bolus; blood, adrenal gland, heart and liver, in mice
Procedure: Carfilzomib standard was formulated in an aqueous solution of 10% (w/v)sulfobutylether-β-cyclodextrin and 10 mmol/L sodium citrate (pH 3.5) for administration (5 mg/kg). At selected time points after i.v. drug administration, tissue samples (adrenal, heart, liver and bone marrow) were collected. Whole blood was collected by cardiac puncture into tubes containing sodium heparin.
Approximately 0.4 mL of whole blood is collected using either EDTA microcentrifuged tubes. Samples are immediately placed on ice and spun at maximum speed for 2 minutes in a microcentrifuge at room temperature (RT). Cell pellets are stored on wet ice. Whole blood cell pellets are resuspended in 1 ml of phosphate buffered saline (PBS) and centrifuged at max speed at 4° C. Supernatants are removed and the pellets are washed a second time with PBS. Samples are resuspended in 2 volumes of lysis buffer (20 mM Tris, pH 8.0, 5 mM EDTA) then frozen and stored at −80° C. until analysis. […]
All samples were thawed on ice. […] These samples were then ready for assaying, or they may be frozen at −80° C. […] These samples were then ready for assaying, or they may be frozen at −80° C. […] The protein concentration for each sample was measured by Bradford assay. Proteasome chymotrypsin-like (CT-L) activity was quantitated by monitoring the release of free AMC from the fluorogenic peptide Suc-Leu-Leu-Val-Tyr-AMC (BostonBiochem).

[7] = in humans; cited from earlier work
[8] = Group 3, 150 mpk to 250 mpk (QW) IV

In the case of “4-((4S,7S,10S,13S)-10-Benzyl-7-isobutyl-15-methyl-13-((R)-2-methyloxirane-2-carbonyl)-2,5,8,11-tetraoxo-4-phenethyl-3,6,9,12-tetraazahexadecyl)-4-(3-((1-(PEG20K-4-Arm)-1H-1,2,3-triazol-4-yl)methoxy)-4-(pivaloyloxy)benzyl)morpholin-4-ium formate [Example 13]”, the “plasma concentration relative to control” value [1] is reported as “multiple log-fold over that of the control”, the “tumor growth vs. vehicle control by Day 19” value ([2]; 200 mpk Example 13, 5 mpk CFZ-captisol) is reported as “significantly attenuated” and the “Day 40 Tumor Vol” value [2, 8] is reported as 998.5 mm^3. The “% Change compared to Vehicle” value [2, 8] was −59.6%, the “Day 0 Tumor Vol” value [2, 8] was 95.5 mm^3 and the “# of animals at day 40” value [2, 8] was 9. For the same compound, the “Day 40 Tumor Vol” value ([2]; Group 4, 200 mpk (QW) IV) was 1443.0 mm^3, the “% Change compared to Vehicle” value ([2]; Group 4, 200 mpk (QW) IV) was −41.6% and the “Day 0 Tumor Vol” value ([2]; Group 4, 200 mpk (QW) IV) was 95.9 mm^3. The “# of animals at day 40” value ([2]; Group 4, 200 mpk (QW) IV) was 7, the “Day-41 tumor sizes, % of control” value ([3]; Group 3, example 13 at 150 mg/kg IV (Table 7: QD × 2 (D1D2) × 6 weeks)) was 79.6% and the “Day-41 tumor sizes, % of control” value ([3]; Group 4, example 13 at 250 mg/kg IV, QW × 6 weeks) was 61.8%. The AUC0-24 [4] was 3510 ng·h/mL, the T1/2 [4] was 3.68 h and the “carfilzomib plasma concentration-time profile (FIG. 4)” value [4] was “significantly higher plasma concentrations for that lengthy duration of time”. The “time carfilzomib is present in / released into the plasma post administration” value [4] was 25 h.

In the case of “4-(4-acetoxy-3-((1-(5-((2-PEG3K-ethyl)amino)-5-oxopentyl)-1H-1,2,3-triazol-4-yl)methoxy)benzyl)-4-((4S,7S,10S,13S)-10-benzyl-7-isobutyl-15-methyl-13-((R)-2-methyloxirane-2-carbonyl)-2,5,8,11-tetraoxo-4-phenethyl-3,6,9,12-tetraazahexadecyl)morpholin-4-ium mesylate [Example 37]”, the IC50 [5] is reported as about 22.8 nM.

In the case of “4-(4-Acetoxy-3-((1-(PEG20K-4-Arm)-1H-1,2,3-triazol-4-yl)methoxy)benzyl)-4-((4S,7S,10S,13S)-10-benzyl-7-isobutyl-15-methyl-13-((R)-2-methyloxirane-2-carbonyl)-2,5,8,11-tetraoxo-4-phenethyl-3,6,9,12-tetraazahexadecyl)morpholin-4-ium methanesulfonate [Example 1]”, the “CT-L activity versus standard carfilzomib” value [6] is reported as “comparable”.

“4-(4-Acetoxy-3-((1-PEG2K-1H-1,2,3-triazol-4-yl)methoxy)benzyl)-4-((4S,7S,10S,13S)-10-benzyl-7-isobutyl-15-methyl-13-((R)-2-methyloxirane-2-carbonyl)-2,5,8,11-tetraoxo-4-phenethyl-3,6,9,12-tetraazahexadecyl)morpholin-4-ium mesylate [Example 36]” gave an IC50 [5] of about 21.8 nM.

For “4-(4-acetoxy-3-((1-(5-((2-PEG2K-ethyl)amino)-5-oxopentyl)-1H-1,2,3-triazol-4-yl)methoxy)benzyl)-4-((4S,7S,10S,13S)-10-benzyl-7-isobutyl-15-methyl-13-((R)-2-methyloxirane-2-carbonyl)-2,5,8,11-tetraoxo-4-phenethyl-3,6,9,12-tetraazahexadecyl)morpholin-4-ium mesylate [Example 38]”, the IC50 [5] was about 21.8 nM.

“4-(4-Acetoxy-3-((1-PEG3K-1H-1,2,3-triazol-4-yl)methoxy)benzyl)-4-((4S,7S,10S,13S)-10-benzyl-7-isobutyl-15-methyl-13-((R)-2-methyloxirane-2-carbonyl)-2,5,8,11-tetraoxo-4-phenethyl-3,6,9,12-tetraazahexadecyl)morpholin-4-ium mesylate [Example 35]” showed an IC50 [5] of about 9 nM.

In the case of `CC(C)C[C@H](NC(=O)[C@H](CCc1ccccc1)NC(=O)CN1CCOCC1)C(=O)N[C@@H](Cc1ccccc1)C(=O)N[C@@H](CC(C)C)C(=O)[C@@]1(C)CO1` [carfilzomib, Carfilzomib], the IC50 [5] is listed as about 9.2 nM and the half-life in-vivo [7] is listed as at most 1 h.

Reference: patent publication US10517954B2, “Pegylated carfilzomib compounds” (AMGEN INC., priority 2016, dated 2019)
